pIC50: −log10 of the molar value.
Target: T1, human MRGPR X2 (Homo sapiens, UniProt Q96LB1)
T1 construct: expressed in transfected cells
T1 sequence (Q96LB1 1-330): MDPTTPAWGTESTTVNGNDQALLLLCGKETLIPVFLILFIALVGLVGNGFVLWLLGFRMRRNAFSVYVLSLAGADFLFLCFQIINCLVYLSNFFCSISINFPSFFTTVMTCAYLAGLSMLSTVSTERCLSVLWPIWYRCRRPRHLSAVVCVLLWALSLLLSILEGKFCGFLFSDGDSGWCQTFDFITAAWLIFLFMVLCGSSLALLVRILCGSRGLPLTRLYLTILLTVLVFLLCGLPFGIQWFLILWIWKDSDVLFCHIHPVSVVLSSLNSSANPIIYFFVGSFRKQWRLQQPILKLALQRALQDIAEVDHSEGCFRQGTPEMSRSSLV
Assay: MRGPR X2 activity, IP-One Gq HTRF antagonist assay versus 0.3 μM Cortistatin-14
Type: cell-based
Settings: CHO cells expressing human MRGPR X2; versus 0.3 μM Cortistatin-14 agonist; IP-1 HTRF; read-out: MRGPRX2 Antagonist Activity
Protocol: CHO cells stably transfected to express human MRGPR X2 were maintained in an incubator at 37° C. with 5% CO2 and grown in F12 (HAM) media with 10% fetal bovine serum (FBS), 1% Glutamax, 1% penicillin/streptomycin, 800 μg/mL Geneticin (G418), and 300 μg/mL Hygromycin B.
Cells were plated in a 384-well assay plate at 20,000 cells per well in 12 μL of Opti-MEM and kept in an incubator overnight. On the day of the assay, compounds solubilized at 10 mM in DMSO were added as a 10-point curve (30 μM final top concentration with 1:3 serial dilutions) using a Tecan D300E digital dispenser. Agonists were diluted in assay buffer (final concentrations of 5.7 mM Tris-HCl, 43 mM NaCl, 50 mM LiCl, pH=8) and 2 μL of the agonist Cortistatin-14 (CPC Scientific, catalog CORT-002) are added to each well. Final concentrations of agonists were 0.3 μM Cortistatin. Final concentrations of DMSO were kept consistent across the plate. Plates were incubated in the dark for 1 h at 37° C. and then for 1 h at room temperature. IP-1 standards and HTRF detection reagents were added according to the IP-One—Gq Kit purchased from Cisbio (part number 62IPAPEJ) and incubated in the dark for 1 h at room temperature. The plate was read on a Molecular Devices SpectraMax iD5 plate reader. The HTRF ratio was calculated from the raw data and graphed using GraphPad Prism to calculate an IC50 value for each compound.
The activity ranges are denoted as follows: “+++++” denotes antagonist activity<100 nM; “++++” denotes antagonist activity between 100 and 500 nM; “+++” denotes activity between 501 and 1000 nM; “++” denotes activity between 1001 and 2500 nM; and “+” denotes activity>2500 nM

SMILES	pIC50
O=C(N[C@@H]1CCC[C@H](Nc2cc(C(F)(F)F)nc3ccccc23)C1)C1(c2cnccn2)CC1 (racemic) [Example 4-29]	5.60 to 6.00
COc1ccc(COc2cc(C(=O)N[C@@H]3CCC[C@H](Nc4cc(C(F)(F)F)nc5ccccc45)C3)on2)cc1 (racemic) [Example 4-35]	5.60 to 6.00
CCCc1nnsc1C(=O)N[C@@H]1CCC[C@H](Nc2cc(C(F)(F)F)nc3ccccc23)C1 (racemic) [Example 4-40]	5.60 to 6.00
CC(C)Cc1cc(C(=O)N[C@@H]2CCC[C@H](Nc3cc(C(F)(F)F)nc4ccccc34)C2)n(C)n1 (racemic) [Example 4-90]	5.60 to 6.00
O=C(CN1C(=O)COc2ccccc21)N[C@@H]1CCC[C@H](Nc2cc(C(F)(F)F)nc3ccccc23)C1 (racemic) [Example 4-100]	5.60 to 6.00
COc1ccc(C(=O)N[C@@H]2CCC[C@H](Nc3cc(C(F)(F)F)nc4ccc(Cl)cc34)C2)cc1 [Example 1, N-((1R,3S)-3-((6-chloro-2-(trifluoromethyl)quinolin-4-yl)amino)cyclohexyl)-4-methoxybenzamide]	> 7.00
O=C(N[C@@H]1CCC[C@H](Nc2cc(C(F)(F)F)nc3ccccc23)C1)c1ccc(F)cc1 [Example 1-8]	6.30 to 7.00
O=C(N[C@@H]1CCC[C@H](Nc2nc(C(F)(F)F)nc3ccccc23)C1)c1ccc(F)cc1 [Example 3, 4-fluoro-N-[(1R,3S)-3-[[2-(trifluoromethyl)quinazolin-4-yl]amino]cyclohexyl]benzamide]	6.00 to 6.30
N#Cc1ccccc1C(=O)N[C@@H]1CCC[C@H](Nc2cc(C(F)(F)F)nc3ccccc23)C1 [Example 3-6]	6.30 to 7.00
Cc1nc(N(C)C)ccc1C(=O)N[C@@H]1CCC[C@H](Nc2cc(C(F)(F)F)nc3ccccc23)C1 [Example 4-22]	5.60 to 6.00
O=C(N[C@@H]1CCC[C@H](Nc2cc(C(F)(F)F)nc3ccccc23)C1)c1cccc(N2CCCC2=O)c1 [Example 4-172]	5.60 to 6.00
N#CC1(C(=O)N[C@@H]2CCC[C@H](Nc3cc(C(F)(F)F)nc4ccccc34)C2)CC1 [Example 4-183]	5.60 to 6.00
O=C(N[C@@H]1CCC[C@H](Nc2cc(C(F)(F)F)nc3ccc(Cl)cc23)C1)c1cccc(F)c1 [Example 4-239]	6.30 to 7.00
CCS(=O)(=O)Nc1cccc(C(=O)N[C@@H]2CCC[C@H](Nc3cc(C(F)(F)F)nc4ccc(Cl)cc34)C2)c1 [Example 4-241]	> 7.00
O=C(N[C@@H]1CCC[C@H](Nc2cc(C(F)(F)F)nc3ccc(Cl)cc23)C1)c1cnn(C(F)F)c1 [Example 4-399]	> 7.00
O=C(N[C@@H]1CCC[C@H](Nc2cc(C(F)(F)F)nc3ccc(Cl)cc23)C1)c1ccc(F)nc1 [Example 4-411]	> 7.00
N#CCCn1ncc(C(=O)N[C@@H]2CCC[C@H](Nc3cc(C(F)(F)F)nc4ccc(Cl)cc34)C2)c1Cl [Example 4-420]	> 7.00
CN(C)c1ccc(C(=O)N[C@@H]2CCC[C@H](Nc3cc(C(F)(F)F)nc4ccc(F)cc34)C2)cc1 [Example 4-421]	> 7.00
CN(C)c1ncc(C(=O)N[C@@H]2CCC[C@H](Nc3cc(C(F)(F)F)nc4ccc(Cl)cc34)C2)s1 [Example 4-422]	> 7.00
O=C(N[C@@H]1CCC[C@H](Nc2cc(C(F)(F)F)nc3ccc(Cl)cc23)C1)c1cnc(NCCF)nc1 [Example 4-423]	> 7.00
O=C(N[C@@H]1CCC[C@H](Nc2cc(C(F)(F)F)nc3ccc(Cl)cc23)C1)c1ccsn1 [Example 4-425]	> 7.00
Nc1ncc(C(=O)N[C@@H]2CCC[C@H](Nc3cc(C(F)(F)F)nc4ccc(Cl)cc34)C2)cn1 [Example 15, 2-amino-N-[(1R,3S)-3-{[6-chloro-2-(trifluoromethyl)quinolin-4-yl]amino}cyclohexyl]pyrimidine-5-carboxamide]	> 7.00
O=C(N[C@@H]1CCC[C@H](Nc2cc(C(F)(F)F)nc3ccc(Cl)cc23)C1)c1ccn(CCF)c1 [Example 19, N-((1R,3S)-3-((6-chloro-2-(trifluoromethyl)quinolin-4-yl)amino)cyclohexyl)-1-(2-fluoroethyl)-1H-pyrrole-3-carboxamide]	> 7.00

Test system: Human LAD2 cells
Assay: Mast Cell Beta-Hexosaminidase Release Assay (500 nM Cortistatin-14)
Type: cell-based
Settings: read-out: MRGPRX2 Antagonist Activity
Protocol: Human LAD2 cells (NIH) were maintained in an incubator at 37° C. with 5% CO2 and cultured in StemPro-34 serum-free media (Gibco 10639011) supplemented with 2 mM L-glutamine, 100 U/ml penicillin, […] streptomycin and 100 ng/ml SCF (Invitrogen PEP0860), at a concentration of 2-5×10^5 cells/mL, with hemidepletion every 1-2 weeks.
Cells were transferred to SCF-Free medium at 2.5×10^5 cells/mL and kept in an incubator overnight. On the day of the assay, cells were washed twice in Assay Buffer (final concentrations 10 mM HEPES, 137 mM NaCl, 5.6 mM D-glucose, 2.7 mM KCl, 1 mM MgCl, 1.8 mM CalCl2, 0.4 mM Na2HPO4·7H2O, 0.04% BSA, pH=7.4) and plated in a 96-well v-bottom plate at 20,000 cells per well in 80 μL Assay Buffer. […] After incubation, 50 μL of 400 mM Glycine buffer (pH 10.7) was added into each well and the plate was read on a Molecular Devices SpectraMax iD5 plate reader (absorbance at 405 nm with reference filter at 620 nm). After background subtraction, the percentage degranulation (percent beta-hexosaminidase release) was calculated as 100×(supernatant values)/(supernatant+lysate values), followed by analysis using GraphPad Prism software to calculate an IC50 value for each compound. […]

SMILES	pIC50
N#CCCn1ncc(C(=O)N[C@@H]2CCC[C@H](Nc3cc(C(F)(F)F)nc4ccc(Cl)cc34)C2)c1Cl [Example 4-420]	> 7.00

Test system: not listed separately
Assay: Mouse Pharmacokinetics Studies
Type: in vivo
Settings: male, C57BL/6, mouse, plasma, po, 50 mg/kg, male C57BL/6 mice, 50 mg/kg oral gavage, non-fasted, read-out: AUC 0-24
Protocol: Compounds were formulated in 5% DMSO, 5% Solutol, and 90% PBS without Ca and Mg (pH 7.4) at a concentration of 5 mg/mL. Male C57BL/6 mice (n=3/compound) were administered a 50 mg/kg dose of each compound by oral gavage under a non-fasted condition. Blood samples were collected via the saphenous vein onto K2-EDTA at 0.25, 0.5, 1, 2, 4, 8 and 24 hours after dosing, and plasma was prepared and stored at −80° C. until analysis. Plasma sample preparation for analysis was done by protein precipitation using acetonitrile (including Verapamil as an internal standard) followed by centrifugation. Compound concentrations were determined in extracted plasma using LC-MS/MS relative to a 12 point standard curve covering the 1 to 4000 nM range. Non-compartmental analysis using Phoenix WinNonlin was used to estimate pharmacokinetic parameters including area under the curve, clearance, and half-life. The administered dose was confirmed by analysis of residual dosing material by UPLC-UV relative to a single point calibration sample.

SMILES	AUC(0-t)
O=C(N[C@@H]1CCC[C@H](Nc2cc(C(F)(F)F)nc3ccc(Cl)cc23)C1)N1CC2(CC2)C1 [Example 6-9]	43 µM·h

Same assay, conditions: male, C57BL/6, mouse, plasma, po, 50 mg/kg, male C57BL/6 mice, 50 mg/kg oral gavage, non-fasted, read-out: AUC 0-last

SMILES	AUC(0-t)
O=C(N[C@@H]1CCC[C@H](Nc2cc(C(F)(F)F)nc3ccc(Cl)cc23)C1)N1CC2(CC2)C1 [Example 6-9]	42 µM·h

Same assay, conditions: mouse; male C57BL/6 mice, 50 mg/kg oral gavage, non-fasted, plasma

SMILES	Cmax
O=C(N[C@@H]1CCC[C@H](Nc2cc(C(F)(F)F)nc3ccc(Cl)cc23)C1)N1CC2(CC2)C1 [Example 6-9]	5.1 µM

Same assay, conditions: mouse; male C57BL/6 mice, 50 mg/kg oral gavage, non-fasted, plasma; read-out: PK: Tmax

SMILES	Tmax
O=C(N[C@@H]1CCC[C@H](Nc2cc(C(F)(F)F)nc3ccc(Cl)cc23)C1)N1CC2(CC2)C1 [Example 6-9]	3.3 h
